The test system of experiment [1] is human sebocytes. As to the kind of experiment: Sebocyte assay (sebum suppression, 14C-acetate incorporation). Type of experiment: cell-based. The note with it: for inhibition at 10 µM: read-out: % Reduction at 10 microMolar; for inhibition at 100 µM: read-out: % Reduction at 100 microMolar. The protocol: Sebum suppression effect of the tricyclodecane amides suitable for use in the present invention was investigated.
Secondary cultures of human sebocytes obtained from an adult […] were grown in 96-well tissue culture plates (Packard) until three days post-confluence. Sebocyte growth medium consisted of Clonetics Keratinocyte Basal Medium (KBM) supplemented with 14 μg/ml bovine pituitary extract, 0.4 μg/ml hydrocortisone, 5 μg/ml insulin, 10 ng/ml epidermal growth factor, 1.2×10^−10 M cholera toxin, 100 units/ml penicillin, and 100 μg/ml streptomycin. All cultures were incubated at 37° C. in the presence of 5% CO2. Medium was changed three times per week.
On the day of experimentation, the growth medium was removed and the sebocytes washed three times with sterile Dulbecco's Modified Eagle Medium (DMEM; phenol red free). Fresh DMEM was added to each sample (triplicates) with 5-microliters of test agent solubilized in ethanol. Controls consisted of addition ethanol alone. Each plate was returned to the incubator for 20-hours followed by the addition of ^14C-acetate buffer (5 mM final concentration, 56 mCi/mmol specific activity). Sebocytes were returned to the incubator for 4-hours after which each culture was rinsed 3-times with phosphate buffered saline to remove unbound label. Radioactive label remaining in the sebocytes was determined using a Packard Microbeta, scintillation counter. Phenol Red, a known sebum suppressive agent, was employed as a positive control.

A short description of experiment [2]: In vitro MPF evaluation (monochromatic protection factor). The note with it: summary of Table 4. Type of experiment: physicochemical. As for the experimental part: MPF=monochromatic protection factor=1/Transmittance at a specific wavelength (lower transmittance gives higher MPF therefore higher absorption for the sunscreen). 305 nm=UVB, 360 nm=UVA. MPF was measured using the same apparatus as SPF above. MPF % increase over control (measured MPF at 305 nm and 360 nm for selected formulation−measured MPF at 305 nm and 360 nm of control)/measured MPF at 305 nm and 360 nm of control×100.

Experiment [3] is described as follows: In vitro SPF evaluation (Optometric 290S SPF meter, PMMA plate). Type of experiment: physicochemical. The note with it: summary of Table 2. The protocol:
SPF, UV-A, and UV-B improvement of compositions within the scope of the invention was investigated.
In vitro SPF measurement was done using the Optometric 290S SPF meter. The product was applied at a dosage of 2 mg/cm^2 on PMMA (polymethylmethacrylate) plate (7 cm×7 cm) and allowed to air dry for 30 minutes. The average SPF value was obtained from 6 SPF readings per plate. Two duplicated runs, the standard deviation from the average was ±2 SPF units. % increase of in vitro SPF versus control calculation: (measured SPF for selected formulation−measured SPF of control)/measured SPF of control×100.

Where [4] appears, read: 10 microMolar test agent, 20 h incubation then 4 h 14C-acetate, radioactive label remaining in sebocytes.
[5] abbreviates: 100 microMolar test agent, 20 h incubation then 4 h 14C-acetate, radioactive label remaining in sebocytes.

Experimental findings from US9682028B2, “Personal care photoprotective compositions with tricyclodecane amides” (Conopco, Inc., priority 2013, dated 2017) are described below.

Where two headings read alike, the source gives them in different places.

Turning to `O=C(N1CCOCC1)C12CC3CC(CC(C3)C1)C2` [Compound C1, Methanone, (morphonyl)tricyclo[3.3.1.1^3,7]dec-1-yl-], the inhibition at 10 µM in experiment [1] (setting [4]) came to 35.4%. The inhibition at 100 µM in experiment [1] (setting [5]) was determined as 78.5%.
As for `O=C(N1CCCCC1)C12CC3CC(CC(C3)C1)C2` [Compound C2, Methanone, (piperidiny)tricyclo[3.3.1.1^3,7]dec-1-yl-], the inhibition at 10 µM in experiment [1] (setting [4]) worked out at 34.3%. Moreover, in experiment [1] (setting [5]), the inhibition at 100 µM turned out to be 51.6%.
As for `O=C(N1CCC1)C12CC3CC(CC(C3)C1)C2` [Compound C4, Methanone, (azetidinyl)tricyclo[3.3.1.1^3,7]dec-1-yl-], in experiment [1], the inhibition at 10 µM stood at 16.3% and the inhibition at 100 µM was 27.9%.
Regarding `O=C(N1CCCCCC1)C12CC3CC(CC(C3)C1)C2` [Compound C5, Methanone, (hexahydroazepinyl)tricyclo[3.3.1.1^3,7]dec-1-yl-], the inhibition at 10 µM in experiment [1] (setting [4]) was found to be 32.4%. For the same compound, the inhibition at 100 µM in experiment [1] (setting [5]) came out at 50.5%.
As to `N#CC1CCN(C(=O)C23CC4CC(CC(C4)C2)C3)CC1` [Compound C6, Methanone, (4-cyano-piperidinyl)tricyclo[3.3.1.1^3,7]dec-1-yl], the inhibition at 10 µM in experiment [1] (setting [4]) turned out to be 24.8%. The inhibition at 100 µM in experiment [1] (setting [5]) was found to be 39.4%.
With `NC(=O)C1CCN(C(=O)C23CC4CC(CC(C4)C2)C3)CC1` [Compound C7, Methanone, (4-amido-piperidinyl)tricyclo[3.3.1.1^3,7]dec-1-yl-], in experiment [1] (setting [4]), the inhibition at 10 µM amounted to 58.9%. The inhibition at 100 µM in experiment [1] (setting [5]) is 73.4%.
On to `O=C(NC12CC3CC(CC(C3)C1)C2)C12CC3CC(CC(C3)C1)C2` [Compound C8, Methanone, (Tricyclo[3.3.1.1^3,7]decanyl)-N-tricyclo[3.3.1.1^3,7]dec-1-yl-], for which the inhibition at 10 µM in experiment [1] (setting [4]) stood at 19.1%. In addition, the inhibition at 100 µM in experiment [1] (setting [5]) came out at 58.8%.
In the same order, the values of `O=C(N1CCC2CCCCC2C1)C12CC3CC(CC(C3)C1)C2` (stereo not drawn) [Compound C9, Methanone, (decahydroisoquinolinyl)tricyclo[3.3.1.1^3,7]dec-1-yl-] are 81.2% and 86.8%.
For `O=C(N1CCCC2CCCCC21)C12CC3CC(CC(C3)C1)C2` (stereo not drawn) [Compound C10, Methanone, (decahydroquinolinyl)tricyclo[3.3.1.1^3,7]dec-1-yl-], the inhibition at 10 µM in experiment [1] (setting [4]) was 63.4%. In experiment [1] (setting [5]), the inhibition at 100 µM is 89.6%.
For the compound `CC1(C)CCCN(C(=O)C23CC4CC(CC(C4)C2)C3)C1` [Compound C11, Methanone, (3,3-dimethyl-1-piperidinyl)tricyclo[3.3.1.1^3,7]dec-1-yl], in experiment [1] (setting [4]), the inhibition at 10 µM was 39.3%. For the same compound, in experiment [1] (setting [5]), the inhibition at 100 µM was determined as 76.6%.
For `CC1CCCCN1C(=O)C12CC3CC(CC(C3)C1)C2` (stereo not drawn) [Compound C12, Methanone, (2-methyl-1-piperidinyl)tricyclo[3.3.1.1^3,7]dec-1-yl-], in experiment [1], the inhibition at 10 µM is 24.5% and the inhibition at 100 µM was determined as 51%.
As to `CC1CCN(C(=O)C23CC4CC(CC(C4)C2)C3)CC1` [Compound C13, Methanone, (4-methyl-1-piperidinyl)tricyclo[3.3.1.1^3,7]dec-1-yl], in experiment [1] (setting [4]), the inhibition at 10 µM is 63.5%. For the same compound, the inhibition at 100 µM in experiment [1] (setting [5]) was determined as 90.4%.
`CC1CCCN(C(=O)C23CC4CC(CC(C4)C2)C3)C1` (stereo not drawn) [Compound C14, Methanone, (3-methyl-1-piperidinyl)tricyclo[3.3.1.1^3,7]dec-1-yl]: in experiment [1], the inhibition at 10 µM was determined as 52.8% and the inhibition at 100 µM was 76%.
For `CC1CC(C)CN(C(=O)C23CC4CC(CC(C4)C2)C3)C1` (stereo not drawn) [Compound C15, Methanone, (3,5-dimethyl-1-piperidinyl)tricyclo[3.3.1.1^3,7]dec-1-yl-], in experiment [1] (setting [4]), the inhibition at 10 µM was found to be 40.1%. The inhibition at 100 µM in experiment [1] (setting [5]) came out at 71%.
As to `CCC1(C)CCN(C(=O)C23CC4CC(CC(C4)C2)C3)CC1` [Compound C16, Methanone, (4-methyl-4-ethy-piperidinyl)tricyclo[3.3.1.1^3,7]dec-1-yl-], the inhibition at 10 µM in experiment [1] (setting [4]) is 49.8%. The inhibition at 100 µM in experiment [1] (setting [5]) was 80.7%.
In the case of `CCC1(CC)CCN(C(=O)C23CC4CC(CC(C4)C2)C3)C1` [Compound C17, Methanone, (3,3-diethyl-pyrrolidinyl)tricyclo[3.3.1.1^3,7]dec-1-yl-], the inhibition at 10 µM in experiment [1] (setting [4]) came to 32.2%. Moreover, in experiment [1] (setting [5]), the inhibition at 100 µM came to 65.2%.
Take `CC(C)N(C(=O)C12CC3CC(CC(C3)C1)C2)C(C)C` [Compound C18, Methanone, (N,N-diisopropyl)tricyclo[3.3.1.1^3,7]dec-1-yl-]: in experiment [1], the inhibition at 10 µM came to 42% and the inhibition at 100 µM is 52.5%.
As to `CC(C)(C)CCNC(=O)C12CC3CC(CC(C3)C1)C2` [Compound C19, Methanone, (3,3-dimethylbutylaminyl)tricyclo[3.3.1.1^3,7]dec-1-yl-], in experiment [1] (setting [4]), the inhibition at 10 µM worked out at 35.9%.
For `CC(C)(C)CNC(=O)C12CC3CC(CC(C3)C1)C2` [Compound C20, Methanone, (2,2-dimethylpropylaminyl)tricyclo[3.3.1.1^3,7]dec-1-yl-], in experiment [1] (setting [4]), the inhibition at 10 µM came to 49.5%. Further, in experiment [1] (setting [5]), the inhibition at 100 µM is 82.8%.
With `CC(C)(C)CC(C)(C)NC(=O)C12CC3CC(CC(C3)C1)C2` [Compound C21, Methanone, (1,1-dimethyl-3,3-dimethylbutylaminyl)tricyclo[3.3.1.1^3,7]dec-1-yl-], in experiment [1] (setting [4]), the inhibition at 10 µM was 26.4%. Also, the inhibition at 100 µM in experiment [1] (setting [5]) turned out to be 43.5%.
In the case of `CC(C)CC(C)NC(=O)C12CC3CC(CC(C3)C1)C2` (stereo not drawn) [Compound C22, Methanone, (1,3-dimethyl-butylaminyl)tricyclo[3.3.1.1^3,7]dec-1-yl-], in experiment [1], the inhibition at 10 µM was 29.1% and the inhibition at 100 µM was 45.3%.
On to `O=S1(=O)OC(c2ccc(O)cc2)(c2ccc(O)cc2)c2ccccc21` [Phenol Red, reference compound], for which the inhibition at 10 µM in experiment [1] (setting [4]) stood at 17.1%. Besides, the inhibition at 100 µM in experiment [1] (setting [5]) turned out to be 65.1%.
For the compound `CCCCCCCCCCCCCCCCCC(N)=O` [octadecanamide], the “UV-A and UV-B protection improvement (in words)” value in experiment [2] is on record as “did not achieve these improvements”. The “SPF protection improvement (in words)” value in experiment [3] is on record as “did not achieve these improvements”.
